This note sets out measurements from patent US20240067637A1, “NAPHTHYRIDINE AND PYRIDO[3,4-c]PYRIDAZINE DERIVATIVES AS GABAA ALPHA 5 RECEPTOR MODULATORS” (Richter Gedeon Nyrt., priority 2020, published 2024).

pKi: −log10 of the molar value.

Sequence of human recombinant GABAA α5β3γ2 receptor (P31644 32-462): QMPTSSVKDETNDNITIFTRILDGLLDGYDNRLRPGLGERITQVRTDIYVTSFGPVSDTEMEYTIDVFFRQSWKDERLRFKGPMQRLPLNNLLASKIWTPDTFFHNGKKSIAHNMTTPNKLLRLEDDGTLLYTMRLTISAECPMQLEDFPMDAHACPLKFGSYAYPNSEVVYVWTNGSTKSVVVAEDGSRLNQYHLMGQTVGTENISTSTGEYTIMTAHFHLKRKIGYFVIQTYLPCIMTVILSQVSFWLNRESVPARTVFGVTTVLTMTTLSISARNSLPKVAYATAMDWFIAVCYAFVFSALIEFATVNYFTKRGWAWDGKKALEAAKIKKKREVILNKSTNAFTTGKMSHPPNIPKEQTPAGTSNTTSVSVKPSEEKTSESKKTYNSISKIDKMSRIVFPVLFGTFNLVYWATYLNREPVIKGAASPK
Sequence of human recombinant GABAA α5β3γ2 receptor (P28472 26-473 partner): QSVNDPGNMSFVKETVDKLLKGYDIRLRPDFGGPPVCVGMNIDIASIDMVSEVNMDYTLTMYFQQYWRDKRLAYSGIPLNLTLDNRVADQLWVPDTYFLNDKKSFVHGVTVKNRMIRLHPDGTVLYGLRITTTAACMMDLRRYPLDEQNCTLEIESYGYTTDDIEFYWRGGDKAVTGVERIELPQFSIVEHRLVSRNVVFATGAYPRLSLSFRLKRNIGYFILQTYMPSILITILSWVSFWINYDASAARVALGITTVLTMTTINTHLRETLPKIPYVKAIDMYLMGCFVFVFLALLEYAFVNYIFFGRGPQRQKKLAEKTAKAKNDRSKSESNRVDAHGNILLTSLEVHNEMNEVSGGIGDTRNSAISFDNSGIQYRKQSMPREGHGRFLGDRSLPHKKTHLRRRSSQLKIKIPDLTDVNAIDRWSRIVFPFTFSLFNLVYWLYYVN
Sequence of human recombinant GABAA α5β3γ2 receptor (P18507 40-475): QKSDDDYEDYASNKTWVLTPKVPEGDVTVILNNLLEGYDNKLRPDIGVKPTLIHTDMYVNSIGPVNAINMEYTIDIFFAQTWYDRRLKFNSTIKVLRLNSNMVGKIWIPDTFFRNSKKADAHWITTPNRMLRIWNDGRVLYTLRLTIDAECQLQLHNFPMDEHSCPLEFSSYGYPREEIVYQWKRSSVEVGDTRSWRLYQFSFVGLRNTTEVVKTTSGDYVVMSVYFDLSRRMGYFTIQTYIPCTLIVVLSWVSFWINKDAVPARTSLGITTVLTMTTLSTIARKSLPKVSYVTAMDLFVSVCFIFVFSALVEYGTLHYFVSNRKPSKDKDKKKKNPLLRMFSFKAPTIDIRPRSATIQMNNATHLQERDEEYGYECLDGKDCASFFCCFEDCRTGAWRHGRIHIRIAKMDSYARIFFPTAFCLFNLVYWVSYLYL

In the assay the target is human recombinant GABAA α5β3γ2 receptor (Homo sapiens (Human), UniProt P18507+P31644). Put plainly: Radioligand ([3H]Ro151788) receptor binding assay. The settings on record: membranes of HEK cells expressing human recombinant GABAA α5β3γ2; 0.5 nM [3H]Ro151788; 60 minutes at 4° C.; read-out: hGABAA α5 Ki. On the procedure:
The GABAA α5β3γ2 protein used for the receptor binding assay was derived from membranes produced from HEK cells (Millipore CYL3073) expressing the human recombinant GABAA α5β3γ2 receptor. Cells were stored and cultured in-house according to the instructions provided by the vendor (Millipore). Cell pellet was homogenized in 10 times modified Krebs Henseleit buffer (membrane preparation buffer): 20 mM Tris, 120 mM NaCl, 100 mM KCl, 25 mM CaCl2 and 25 mM MgCl2 pH=7.4 at 4° C. using Ultra Turrax (Janke&Kunkel) maximal speed for 15 seconds. The homogenate was centrifuged at 40,000 g for 30 minutes at 4° C. Supernatant was discarded and the resulting pellet was washed in membrane preparation buffer. Pellet was resuspended in membrane preparation buffer and aliquots of 1.4 mL ampules were stored at −70° C. until use.
Receptor binding assays were performed in 96-well format in deep-well plates. For each 96-well plate one ampule of membrane homogenate was thawed and diluted in binding buffer (50 mM Tris pH=7.4, 100 mM KCl) and 200 μL was dispensed into each well. Radioligand [^3H]Ro151788 (Perkin Elmer: NET757250UC) was prepared in binding buffer and added to each well in 50 μL volume to give final concentration of 0.5 nM. Test compounds in suitable concentration(s) were added in additional 50 μL. The final assay volume was 300 μL. Incubation was carried out for 60 minutes at 4° C. For non-specific binding 10 μM unlabeled diazepam was used. After incubation samples were filtered over UniFilter® GF/BT using Filtermate Harvester (Perkin Elmer) and washed with 5×1 mL binding buffer. The plate was dried at 40° C. for an hour and 40 μL Microscint (Perkin Elmer) scintillation cocktail was added to each well. The plate was read in Microbeta (Perkin Elmer).
The specific radioligand binding (SB) was defined as the difference between total binding (Tot) and the non-specific binding (NSB). Results are expressed as a percent inhibition of specific binding obtained in the presence of compound of interest.
For IC50 and Ki determination a minimum of six drug concentrations in triplicate were used. IC50 values (i.e. concentration of compound giving 50% inhibition of specific binding) were calculated from concentration-displacement curves by sigmoidal fitting using Origin 7.5 software. Ki values (i.e. inhibition constants) were calculated using the Cheng-Prusoff equation Ki=IC50/[1+(L/KD)], where [L] is the radioligand concentration and KD the affinity of the labelled ligand for receptor. KD was determined from the Saturation analyses.
As for `Cc1ccc(-c2noc(C)c2COc2cc3c(cn2)CN(C(=O)OC(C)(C)C)CC3)cn1` [Example 2, tert-butyl 6-{[5-methyl-3-(6-methylpyridin-3-yl)-1,2-oxazol-4-yl]methoxyl}-1,2,3,4-tetrahydro-2,7-naphthyridine-2-carboxylate], the pKi was 7.42.

Consider `Cc1ccc(-c2noc(C)c2COc2cc3c(nn2)CN(C(=O)CF)CC3)cn1` [Example 30, 2-fluoro-1-(3-{[5-methyl-3-(6-methylpyridin-3-yl)-1,2-oxazol-4-yl]methoxy}-5H,6H,7H,8H-pyrido[3,4-c]pyridazin-7-yl)ethan-1-one], for which the pKi was 8.72.

Take `CCN1CC(C(=O)N2CCc3cc(OCc4c(-c5ccc(C)nc5)noc4C)ncc3C2)CC1=O` (stereo not shown) [Example 23, 1-ethyl-4-(6-{[5-methyl-3-(6-methylpyridin-3-yl)-1,2-oxazol-4-yl]methoxy}-1,2,3,4-tetrahydro-2,7-naphthyridine-2-carbonyl)pyrrolidin-2-one]: the negative-log Ki (pKi) is 8.16.

`Cc1ccc(-c2noc(C)c2COc2cc3c(cn2)CN(C(=O)C2CCOC2)CC3)cn1` (stereo not shown) [Example 12, 6-{[5-methyl-3-(6-methylpyridin-3-yl)-1,2-oxazol-4-yl]methoxy}-2-(oxolane-3-carbonyl)-1,2,3,4-tetrahydro-2,7-naphthyridine]: the pKi is 8.14.

Take `Cc1ccc(-c2noc(C)c2COc2cc3c(cn2)CN(C(=O)CS(C)(=O)=O)CC3)cn1` [Example 5, 2-methanesulfonyl-1-(6-{[5-methyl-3-(6-methylpyridin-3-yl)-1,2-oxazol-4-yl]methoxy}-1,2,3,4-tetrahydro-2,7-naphthyridin-2-yl)ethan-1-one]: the pKi is 8.46.

As for `CCC(=O)N1CCc2cc(OCc3c(-c4ccc(C)nc4)nnn3C)ncc2C1` [Example 62, 1-(6-{[1-methyl-4-(6-methylpyridin-3-yl)-1H-1,2,3-triazol-5-yl]methoxy}-1,2,3,4-tetrahydro-2,7-naphthyridin-2-yl)propan-1-one], the pKi is 7.48.

For the molecule `CC(=O)N1CCc2cc(OCc3c(C)nnn3-c3ccc(C)nc3)ncc2C1` [Example 37, 1-(6-{[4-methyl-1-(6-methylpyridin-3-yl)-1H-1,2,3-triazol-5-yl]methoxy}-1,2,3,4-tetrahydro-2,7-naphthyridin-2-yl)ethan-1-one], the negative-log Ki (pKi) was 8.10.

With `Cc1nnn(-c2ccc(C(F)F)nc2)c1COc1cc2c(cn1)CN(C(=O)CF)CC2` [Example 57, 2-fluoro-1-[6-({4-methyl-1-[6-(difluoromethyl)pyridin-3-yl]-1H-1,2,3-triazol-5-yl}methoxy)-1,2,3,4-tetrahydro-2,7-naphthyridin-2-yl]ethan-1-one], the pKi was 9.05.

With `Cc1ccc(-c2noc(C)c2COc2cc3c(cn2)CN(C(=O)C2CC(=O)N(C)C2)CC3)cn1` (stereo not shown) [Example 15, 1-methyl-4-(6-{[5-methyl-3-(6-methylpyridin-3-yl)-1,2-oxazol-4-yl]methoxy}-1,2,3,4-tetrahydro-2,7-naphthyridine-2-carbonyl)pyrrolidin-2-one], the pKi was 8.08.

Consider `Cc1ccc(-c2noc(C)c2COc2cc3c(cn2)CN(C(=O)C2CC(=O)N(C(C)C)C2)CC3)cn1` (stereo not shown) [Example 16, 4-(6-{[5-methyl-3-(6-methylpyridin-3-yl)-1,2-oxazol-4-yl]methoxy}-1,2,3,4-tetrahydro-2,7-naphthyridine-2-carbonyl)-1-(propan-2-yl)pyrrolidin-2-one], for which the pKi is 7.96.

As for `Cc1ccc(-c2nnn(C)c2COc2cc3c(cn2)CN(C(=O)CF)CC3)cn1` [Example 68, 2-fluoro-1-(6-{[1-methyl-4-(6-methylpyridin-3-yl)-1H-1,2,3-triazol-5-yl]methoxy}-1,2,3,4-tetrahydro-2,7-naphthyridin-2-yl)ethan-1-one], the negative logarithm of the Ki (pKi) is 8.04.

As for `Cc1ccc(-n2nnc(C)c2COc2cc3c(cn2)CN(C(=O)CC(C)C)CC3)cn1` [Example 41, 3-methyl-1-(6-{[4-methyl-1-(6-methylpyridin-3-yl)-1H-1,2,3-triazol-5-yl]methoxy}-1,2,3,4-tetrahydro-2,7-naphthyridin-2-yl)butan-1-one], the negative-log Ki (pKi) is 7.32.

With `CC(=O)N1CCc2cc(OCc3c(-c4ccc(C(F)(F)F)nc4)noc3C)ncc2C1` [Example 4, 1-[6-({5-methyl-3-[6-(trifluoromethyl)pyridin-3-yl]-1,2-oxazol-4-yl}methoxy)-3,4-dihydro-2,7-naphthyridin-2(1H)-yl]ethanone], the negative logarithm of the Ki (pKi) was 8.01.

Take `Cc1nnn(-c2ccc(C(F)(F)F)nc2)c1COc1cc2c(cn1)CN(C(=O)C(C)C)CC2` [Example 50, 2-methyl-1-[6-({4-methyl-1-[6-(trifluoromethyl)pyridin-3-yl]-1H-1,2,3-triazol-5-yl}methoxy)-1,2,3,4-tetrahydro-2,7-naphthyridin-2-yl]propan-1-one]: the pKi was 7.36.

`CC(=O)N1CCc2cc(OCc3c(-c4ccc(C)nc4)noc3C)nnc2C1` [Example 24, 1-(3-{[5-methyl-3-(6-methylpyridin-3-yl)-1,2-oxazol-4-yl]methoxy}-5H,6H,7H,8H-pyrido[3,4-c]pyridazin-7-yl)ethan-1-one]: the pKi is 8.64.

As to `CCC(=O)N1CCc2cc(OCc3c(C)nnn3-c3ccc(C)nc3)ncc2C1` [Example 43, 1-(6-{[4-methyl-1-(6-methylpyridin-3-yl)-1H-1,2,3-triazol-5-yl]methoxy}-1,2,3,4-tetrahydro-2,7-naphthyridin-2-yl)propan-1-one], the negative-log Ki (pKi) was 7.70.

As for `Cc1ccc(-c2noc(C)c2COc2cc3c(cn2)CN(C(=O)c2cccnc2)CC3)cn1` [Example 7, 6-{[5-methyl-3-(6-methylpyridin-3-yl)-1,2-oxazol-4-yl]methoxy}-2-(pyridine-3-carbonyl)-1,2,3,4-tetrahydro-2,7-naphthyridine], the pKi was 8.22.

Turning to `Cc1ccc(-c2noc(C)c2COc2cc3c(cn2)CN(C(=O)[C@@H]2CCC(=O)N2C)CC3)cn1` [Example 22, (5S)-1-methyl-5-(6-{[5-methyl-3-(6-methylpyridin-3-yl)-1,2-oxazol-4-yl]methoxy}-1,2,3,4-tetrahydro-2,7-naphthyridine-2-carbonyl)pyrrolidin-2-one], the pKi is 8.03.

Regarding `CC(=O)N1CCc2cc(OCc3c(C)nnn3-c3ccc(C(F)(F)F)nc3)nnc2C1` [Example 53, 1-[3-({4-methyl-1-[6-(trifluoromethyl)pyridin-3-yl]-1H-1,2,3-triazol-5-yl}methoxy)-5,8-dihydropyrido[3,4-c]pyridazin-7(6H)-yl]ethanone], the pKi was 7.00.

For the molecule `CCC(=O)N1CCc2cc(OCc3c(-c4ccc(C)nc4)noc3C)nnc2C1` [Example 29, 1-(3-{[5-methyl-3-(6-methylpyridin-3-yl)-1,2-oxazol-4-yl]methoxy}-5H,6H,7H,8H-pyrido[3,4-c]pyridazin-7-yl)propan-1-one], the pKi was 8.22.

For the molecule `Cc1ccc(-c2noc(C)c2COc2cc3c(cn2)CN(C(=O)C2CCC(=O)N(C)C2)CC3)cn1` (stereo not shown) [Example 20, 1-methyl-5-(6-{[5-methyl-3-(6-methylpyridin-3-yl)-1,2-oxazol-4-yl]methoxy}-1,2,3,4-tetrahydro-2,7-naphthyridine-2-carbonyl)piperidin-2-one], the pKi was 8.05.

For `Cc1ccc(-n2nnc(C)c2COc2cc3c(cn2)CN(C(=O)C2CC2)CC3)cn1` [Example 44, 2-cyclopropanecarbonyl-6-{[4-methyl-1-(6-methylpyridin-3-yl)-1H-1,2,3-triazol-5-yl]methoxy}-1,2,3,4-tetrahydro-2,7-naphthyridine], the negative-log Ki (pKi) is 7.66.
